Test systems include MOLT-4; HCT-15; SF-268; M14; U-251; OVCAR-4; HT-29; SNB-75; SF-539; HL-60; SN12C; EKVX; NCI-H522; Malme-3M; XF498; CCRF-CEM; OVCAR-3.
Common to all, as to experiment: NCI-60 cell line screen, 48 h

Structures are written as SMILES.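 Results reflect a 48-hour exposure of cells in 96-well plates to compound at five concentrations. GI50 = concentration required for 50% inhibition of growth.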 Active and inactive are the calls of the source. Cut-off read from the data, not from the text of the source: active = GI50 up to about 1.1 µM and inactive = higher.

Take `N=C(N)/N=C(/C=C/c1ccccc1)CC1OC(=O)c2ccccc21` (configuration not stated): the GI50 in the experiment on MOLT-4 was > 100 µM (inactive); in the experiment with HCT-15, more than 100 µM; with SF-268, 61.1 µM (inactive); in the experiment with M14, > 100 µM (inactive); in the experiment with U-251, > 100 µM (inactive); with OVCAR-4 it was > 100 µM (inactive). The GI50 in the experiment on HT-29, in the experiment on SNB-75, with SF-539, with HL-60, in the experiment with SN12C and in the experiment on EKVX was > 100 µM (inactive) throughout. For the same compound, the GI50 in the experiment with NCI-H522 was > 100 µM (inactive); in the experiment with Malme-3M it was > 100 µM (inactive); in the experiment with XF498 it was > 100 µM (inactive); in the experiment with CCRF-CEM, 86.9 µM (inactive).
Consider `CC(C)(C)OC(=O)N[C@H]1CC(O)c2ccccc2N(CC(=O)O)C1=O` (some centres not stated), for which the GI50 with MOLT-4 was > 100 µM (inactive); in the experiment with HCT-15 it was more than 100 µM; with SF-268 it was > 100 µM (inactive); in the experiment on M14, > 100 µM (inactive); with OVCAR-4 it was > 100 µM (inactive); in the experiment on HT-29 it was > 100 µM (inactive). Moreover, the GI50 with SNB-75, in the experiment with SF-539, with HL-60, in the experiment with SN12C, in the experiment with EKVX and with NCI-H522 was > 100 µM (inactive) throughout. Moreover, the GI50 in the experiment with Malme-3M, in the experiment on OVCAR-3, with XF498 and in the experiment with CCRF-CEM was > 100 µM (inactive) each time.
Regarding `NN/C(Cc1ccccc1)=N/NC(N)=S`, the GI50 was 49.9 µM (inactive) in the experiment on MOLT-4; 72.6 µM in the experiment on HCT-15; > 100 µM (inactive) in the experiment on SF-268; > 100 µM (inactive) in the experiment on M14; > 100 µM (inactive) in the experiment with U-251; > 100 µM (inactive) in the experiment on OVCAR-4. The GI50 in the experiment with HT-29 was > 100 µM (inactive); in the experiment on SNB-75, > 100 µM (inactive); with SF-539, > 100 µM (inactive); in the experiment on HL-60, 63 µM (inactive); in the experiment on EKVX it was 97.3 µM (inactive); in the experiment with NCI-H522, 14.6 µM (inactive). In addition, the GI50 is > 100 µM (inactive) in the experiment with Malme-3M, > 100 µM (inactive) in the experiment with XF498 and 54.1 µM (inactive) in the experiment with CCRF-CEM.
With `C/C=C1\CCC2c3[nH]c4ccccc4c3CCN2C1` (configuration not stated), the GI50 was 76.4 µM (inactive) in the experiment on MOLT-4; > 100 µM (inactive) in the experiment on SF-268; 21.5 µM (inactive) in the experiment on M14; > 100 µM (inactive) with U-251; 32.1 µM (inactive) with OVCAR-4; 40 µM (inactive) with HT-29. The GI50 in the experiment on SNB-75 was 61.7 µM (inactive); in the experiment with SF-539, > 100 µM (inactive); in the experiment on HL-60 it was 43.3 µM (inactive); in the experiment with SN12C, > 100 µM (inactive); in the experiment with EKVX, > 100 µM (inactive); in the experiment on NCI-H522, 83.8 µM (inactive). Further, the GI50 is 0.174 µM (active) in the experiment on Malme-3M, 35.8 µM (inactive) in the experiment with OVCAR-3, 17.1 µM (inactive) with XF498 and > 100 µM (inactive) in the experiment on CCRF-CEM.
As for `CCOC(=O)/C(=C/c1ccccc1)N(CC)CC`, the GI50 was > 100 µM (inactive) in the experiment with MOLT-4; more than 100 µM with HCT-15; > 100 µM (inactive) in the experiment with SF-268; > 100 µM (inactive) with M14; > 100 µM (inactive) in the experiment with U-251; > 100 µM (inactive) in the experiment on OVCAR-4. The GI50 in the experiment with HT-29, in the experiment on SF-539, in the experiment on HL-60, in the experiment with SN12C, in the experiment on EKVX and with NCI-H522 was > 100 µM (inactive) in each case. The GI50 in the experiment on Malme-3M was > 100 µM (inactive); with OVCAR-3, > 100 µM (inactive); in the experiment with XF498, > 100 µM (inactive); with CCRF-CEM it was 62.2 µM (inactive).
For `Cc1nn(-c2ccccc2)c(S)c1C(=O)c1ccccc1`, the GI50 is 24.4 µM (inactive) in the experiment on MOLT-4; 34.6 µM with HCT-15; 51.1 µM (inactive) in the experiment on SF-268; 31.1 µM (inactive) in the experiment on M14; > 100 µM (inactive) in the experiment on U-251; 40.7 µM (inactive) in the experiment on OVCAR-4. Further, the GI50 was 10 µM (inactive) in the experiment on HT-29; 42.8 µM (inactive) with SNB-75; 40.7 µM (inactive) in the experiment with SF-539; 32.1 µM (inactive) with HL-60; 21.2 µM (inactive) in the experiment with SN12C; 18.6 µM (inactive) in the experiment on EKVX. In addition, the GI50 with NCI-H522 was 36.6 µM (inactive); in the experiment on Malme-3M, > 100 µM (inactive); in the experiment on XF498, 35.2 µM (inactive); in the experiment on CCRF-CEM, 20.5 µM (inactive).
`Nc1ccc(CCN2CCN(c3cccc(C(F)(F)F)c3)CC2)cc1`: the GI50 was 4.38 µM (inactive) in the experiment on MOLT-4; more than 100 µM with HCT-15; > 100 µM (inactive) in the experiment with SF-268; 82.6 µM (inactive) in the experiment on M14; 91.2 µM (inactive) in the experiment with U-251; 70 µM (inactive) in the experiment on HT-29. The GI50 is > 100 µM (inactive) in the experiment with SNB-75; > 100 µM (inactive) in the experiment with SF-539; 9.51 µM (inactive) with HL-60; > 100 µM (inactive) in the experiment with SN12C; 55.5 µM (inactive) with EKVX; 14.3 µM (inactive) with NCI-H522. The GI50 in the experiment on Malme-3M was > 100 µM (inactive); in the experiment with OVCAR-3, 91.4 µM (inactive); with XF498 it was > 100 µM (inactive); in the experiment with CCRF-CEM it was 5.07 µM (inactive).
Consider `O=C(Nc1ccc(Cl)cc1)C1C(=O)C(=O)N(c2ccc(Cl)cc2)C1=O` (configuration not stated), for which the GI50 with MOLT-4 was 71.3 µM (inactive); in the experiment with HCT-15 it was 35.9 µM; in the experiment on SF-268, > 100 µM (inactive); in the experiment on M14, > 100 µM (inactive); in the experiment with U-251 it was 58.6 µM (inactive); with HT-29 it was 74.8 µM (inactive). Further, the GI50 in the experiment on SNB-75 was > 100 µM (inactive); with SF-539, > 100 µM (inactive); in the experiment with HL-60, > 100 µM (inactive); in the experiment on SN12C it was 81.1 µM (inactive); in the experiment on EKVX, > 100 µM (inactive); in the experiment on NCI-H522, > 100 µM (inactive). Also, the GI50 with Malme-3M is > 100 µM (inactive); with OVCAR-3, > 100 µM (inactive); in the experiment with XF498, > 100 µM (inactive); in the experiment with CCRF-CEM, 73.6 µM (inactive).
Take `COc1cc(CC2c3cc(OC)c(OC)cc3CCN2C)c(C(=O)O)cc1OC` (configuration not stated): the GI50 in the experiment on MOLT-4, in the experiment on SF-268, in the experiment with M14, in the experiment on U-251, in the experiment with HT-29 and in the experiment with SNB-75 was > 100 µM (inactive) throughout. Moreover, the GI50 with SF-539, in the experiment on HL-60, in the experiment on SN12C, with EKVX, in the experiment on NCI-H522 and with Malme-3M was > 100 µM (inactive) throughout. Also, the GI50 with OVCAR-3, in the experiment with XF498 and in the experiment with CCRF-CEM was > 100 µM (inactive) each time.

For the origin of these results see ChEMBL document CHEMBL1201862, “PubChem BioAssay data set” (2004).
